# Biological target: T1, CERT (Homo sapiens, UniProt Q9Y5P4)
# T1 construct: made in house; host or cells: E. coli BL21 (DE3), pET-28a(+)
# T1 sequence (Q9Y5P4 1-598 isoform Q9Y5P4-2): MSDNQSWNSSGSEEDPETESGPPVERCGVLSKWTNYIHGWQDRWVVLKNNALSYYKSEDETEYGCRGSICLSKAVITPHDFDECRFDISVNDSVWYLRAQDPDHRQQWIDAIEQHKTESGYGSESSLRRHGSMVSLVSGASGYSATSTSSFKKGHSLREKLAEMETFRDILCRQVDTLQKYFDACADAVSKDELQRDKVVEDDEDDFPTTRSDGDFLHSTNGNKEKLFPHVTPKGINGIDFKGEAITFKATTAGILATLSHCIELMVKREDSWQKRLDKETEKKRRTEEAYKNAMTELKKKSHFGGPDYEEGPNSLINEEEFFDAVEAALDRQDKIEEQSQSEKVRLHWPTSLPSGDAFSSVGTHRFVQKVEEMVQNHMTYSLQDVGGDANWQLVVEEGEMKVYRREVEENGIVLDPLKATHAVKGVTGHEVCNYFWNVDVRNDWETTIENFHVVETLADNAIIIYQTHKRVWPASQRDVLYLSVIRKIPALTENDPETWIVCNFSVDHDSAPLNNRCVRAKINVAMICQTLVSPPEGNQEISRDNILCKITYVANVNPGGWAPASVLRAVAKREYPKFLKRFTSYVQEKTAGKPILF
# Test: NR-ceramide fluorescence competition assay
# Assay type: binding
# Settings: 1 μM Nile red ceramide
# Source text: Having the identified hits from CERT-transfer assay, we were interested in further understanding the relationship between the CERT-transfer inhibitory activity and CERT-binding affinity. With this goal in mind, we have developed a homogenous competitive assay based on the binding of fluorescently-labeled ceramide to CERT-protein (Fig S6). It’s well known that Nile Red is […]
# than in hydrophilic one. Based on this knowledge, we have designed a fluorescently-labeled probe in which the Nile Red-tag was incorporated into the ceramide fatty acid moiety. The NR-ceramide […]
# excellent signal-to-noise ratio (28-fold, Fig S7.A). Equilibration takes ~1h of incubation at 30°C.
# Furthermore, this assay is a simple mix-and read format and uses only low amounts of fluorophore (1µM) and CERT-protein (12.5µg/assay).
# The assay was performed in non-binding black-bottom 96-well microplate (Greiner Bio-One). To each well was added 1µL HPA12 (final concentration 2.5µM) or DMSO, followed by 98 µL of the CERT aliquot (12.5µg/well). After the mixture was incubated for 40 min at 30°C, 1µL NR-ceramide (final concentration 1µM) was added. Controls were triplicates of 10mM Tris.HCl buffer (pH 7.4, 250 mM sucrose) with 2µL DMSO, CERT aliquot (12.5µg/well) with 2µL DMSO, and 1µL NR-ceramide (final concentration 1µM) in 10mM Tris.HCl buffer (pH 7.4, 250 mM sucrose) with 1µL DMSO. The plate was then sealed with transparent Thermowell seal tape and placed in the microplate reader (LABTECH) at 30°C with shaking. The fluorescence was measured from the top over 80min (number of cycles 35, delay 70 sec) with excitation filter 540 nm and emission filter 640 nm. The competitive CERT-binding activity was calculated using the formula: Ix = I(À2-Y)/I0(À1-X), where À1 is the average of the florescence of the control of NR-ceramide in Tris.HCl buffer, X is the average of the fluorescence of the buffer alone, À2 is the fluorescence average of the assay mixture, Y is the fluorescence average of the CERT aliquot with inhibitor/DMSO (Fig […]
# It is however lower than the differentiation in the transfer assay (Fig S8B).
# 3.2 High throughput screening for CERT-activity and Data analysis
# In order to validate the performance of developed assay in high-throughput screening format, the hits from ‘confirmed-hit group’ (45 hits) were screened for their competitive CERT-binding activity. The assay was performed as mentioned in the previous sub-section 3.1. Briefly, 1µL tested compound (final concentration 1µM, 2.5µM, 5µM, 10µM) or DMSO for control, and 98 µL CERT stock solution were sequentially added into a non-binding 96-well microplate. The plate was sealed and incubated at 30°C for 40 min, before 1µL NR-ceramide (final concentration 1µM) was added.
# Controls per plate were triplicates of 10mM Tris.HCl buffer (pH 7.4, 250 mM sucrose) with 2µL DMSO, CERT aliquot (12.5µg/well) with 2µL DMSO, 1µL NR-ceramide (final concentration 1µM) in 10mM Tris.HCl buffer (pH 7.4, 250 mM sucrose), and HPA12 as a reference inhibitor (final concentration of 1µM, and 2.5µM, 5µM). The plate was sealed with transparent Thermowell seal tape and the assay was allowed to proceed as described above using excitation filter 540 nm and emission filter 640 nm. The competitive CERT-binding activity was calculated using the formula: Ix = I(À2-Y)/I0(À1-X), where À1 is the average of the florescence of the control 1µL NR-ceramide in Tris.HCl buffer, X is the average of the fluorescence of the buffer alone, À2 is the average of the fluorescence of assay mixture treated with tested compound or DMSO, Y is the average of the fluorescence of CERT aliquot with inhibitor/DMSO.
row,Structure (SMILES),activity in the NR ceramide competition assay
1,"Cc1cc(C2=NOC(c3cc(Cl)cc(Cl)c3)(C(F)(F)F)C2)ccc1C(=O)NCC(=O)NCC(F)(F)F (centres unmarked) [20D5, Fluralaner]",high activity
2,"CCCC(=O)OCOC(=O)C1=C(C)NC(C)=C(C(=O)OC)C1c1cccc(Cl)c1Cl (centres unmarked) [6B11, Clevidipine butyrate]",high activity
3,"CC1=NN(c2ccc(C)c(C)c2)C(=O)/C1=N\Nc1cccc(-c2cccc(C(=O)O)c2)c1O [17C9, Eltrombopag]",very strong competition
4,"CCCCCCCCCCCC(=O)NC(CO)CC(O)c1ccccc1 (centres unmarked) [HPA-12, N-(3Hydroxy-1-hydroxymethyl-3-phenylpropyl)-dodecamide]",reverted to approximately the initial value
5,"O=C(NC1CCN(CCCCC2(C(=O)NCC(F)(F)F)c3ccccc3-c3ccccc32)CC1)c1ccccc1-c1ccc(C(F)(F)F)cc1 [8E8, lomitapide]",high activity
